Reference: ChEMBL document CHEMBL3102847, “Structure of the σ1 receptor and its ligand binding site” (J Med Chem, 2013)

Legend:
[1] = biological target: T1, Sigma non-opioid intracellular receptor 1 (Rattus norvegicus, UniProt Q9R0C9); test: Displacement of [125I]IACoc from sigma 1 receptor in rat liver microsomes
[2] = biological target: T1, Sigma non-opioid intracellular receptor 1; test: Displacement of [3H]-(+)-pentazocine from sigma 1 receptor in rat liver homogenates; type: tissue-based
[3] = biological target: T2, Sigma non-opioid intracellular receptor 1 (Homo sapiens, UniProt Q99720); test: Displacement of [125I]N-IACoc from sigma 1 receptor (unknown origin)
T2 sequence (Q99720 whole entry): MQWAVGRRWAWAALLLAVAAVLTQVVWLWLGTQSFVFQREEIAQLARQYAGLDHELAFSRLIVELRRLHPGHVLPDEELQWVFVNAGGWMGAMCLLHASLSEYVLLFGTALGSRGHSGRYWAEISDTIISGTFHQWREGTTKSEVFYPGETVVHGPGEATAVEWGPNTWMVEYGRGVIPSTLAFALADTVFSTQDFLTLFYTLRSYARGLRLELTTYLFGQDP

[4] = biological target: T2, Sigma non-opioid intracellular receptor 1; test: Displacement of [125I]N-IAC44 from sigma 1 receptor (unknown origin)

T1 sequence (Q9R0C9 whole entry): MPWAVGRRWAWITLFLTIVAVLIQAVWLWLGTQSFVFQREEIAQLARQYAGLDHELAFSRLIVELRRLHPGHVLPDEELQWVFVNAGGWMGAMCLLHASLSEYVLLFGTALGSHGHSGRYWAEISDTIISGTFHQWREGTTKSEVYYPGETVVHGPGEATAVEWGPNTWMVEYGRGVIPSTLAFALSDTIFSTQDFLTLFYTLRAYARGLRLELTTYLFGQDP

SMILES: COC(=O)[C@H]1[C@@H](OC(=O)c2ccc(N=[N+]=[N-])c([125I])c2)C[C@@H]2CC[C@H]1N2C
- Ki [1]: 0.126 nM

SMILES: CN(C)CCc1c[nH]c2ccccc12 [N,N-DIMETHYLTRYPTAMINE]
- Ki [2]: 15400 nM

SMILES: COC(=O)[C@H]1[C@@H](OC(=O)c2ccccc2)C[C@@H]2CC[C@H]1N2CCc1ccc(N=[N+]=[N-])c([125I])c1
- Kd [3]: 11 nM

SMILES: CCCN(CCCc1ccccc1)CCc1ccc(N=[N+]=[N-])c([125I])c1
- Kd [4]: 7.2 nM
